Measured values taken from ChEMBL document CHEMBL3804815, “Aloperine and Its Derivatives as a New Class of HIV-1 Entry Inhibitors” (ACS Med Chem Lett, 2016).
Activity calls are given as the source filed them. No cut-off for these calls is given here.

How the values were obtained:
[1] = Cytotoxicity against human MT4 cells assessed as reduction in cell viability after 3 days by CellTiter-Glo luminescent assay; type: cell-based
[2] = tested on: Human immunodeficiency virus 1; test: Antiviral activity against HIV1 NL4-3 infected in human MT4 cells assessed as reduction in viral replication measured on day 3 post infection by Nano-Glo luciferase reporter gene assay; type: functional, organism-based; conditions: Human immunodeficiency virus 1, NL4-3, MT4, 72 h
[3] = tested on: COS; test: Inhibition of HIV1 NL4-3 Env-induced cell-cell fusion between viral envelope expressing African green monkey COS cells to CXCR4 receptor expressing human TZM-bl cells at 0.01 to 10 uM after overnight incubation by Bright-Glo luciferase assay; type: cell-based; conditions: Human immunodeficiency virus 1
[4] = tested on: COS; test: Inhibition of HIV1 YU2 gp120-induced cell-cell fusion between viral envelope expressing African green monkey COS cells to CCR5 receptor expressing human TZM-bl cells at 0.01 to 10 uM after overnight incubation by Bright-Glo luciferase assay; type: cell-based; conditions: Human immunodeficiency virus type 1 (isolate YU2)
[5] = tested on: Human immunodeficiency virus 1; test: Antiviral activity against HIV1 NL4-3 assessed as inhibition of early phase viral infection in human MT4 cells; type: functional, organism-based
[6] = tested on: Human immunodeficiency virus 1; test: Antiviral activity against HIV1 NL4-3 assessed as inhibition of viral infection in human MT4 cells treated 2 hrs post infection; type: functional, organism-based
[7] = Inhibition of HIV1 NL4-3 Env-induced cell-cell fusion between viral envelope expressing African green monkey COS cells to CXCR4 receptor expressing human TZM-bl cells after overnight incubation by Bright-Glo luciferase assay; type: cell-based; conditions: Human immunodeficiency virus 1, NL4-3, COS
[8] = Inhibition of HIV1 YU2 gp120-induced cell-cell fusion between viral envelope expressing African green monkey COS cells to CCR5 receptor expressing human TZM-bl cells after overnight incubation by Bright-Glo luciferase assay; type: cell-based, Human immunodeficiency virus type 1 (isolate YU2); conditions: Human immunodeficiency virus 1, COS
[9] = tested on: COS; test: Inhibition of BMS-806 resistant HIV1 YU2 gp120 T198P mutant-induced cell-cell fusion between viral envelope expressing African green monkey COS cells to CCR5 receptor expressing human TZM-bl cells at 0.001 to 10 uM after overnight incubation by Bright-Glo luciferase assay; type: cell-based; conditions: Human immunodeficiency virus type 1 (isolate YU2)
[10] = tested on: COS; test: Inhibition of HIV1 8X gp120-induced cell-cell fusion between viral envelope expressing African green monkey COS cells and human TZM-bl cells at 0.001 to 10 uM after overnight incubation by Bright-Glo luciferase assay; type: cell-based; conditions: Human immunodeficiency virus 1
[11] = tested on: COS; test: Inhibition of BMS-806 resistant HIV1 YU2 gp120 T198P mutant-induced cell-cell fusion between viral envelope expressing African green monkey COS cells to CCR5 receptor expressing human TZM-bl cells at 5 uM after overnight incubation by Bright-Glo luciferase assay; type: cell-based; conditions: Human immunodeficiency virus type 1 (isolate YU2)
[12] = tested on: COS; test: Inhibition of HIV1 8X gp120-induced cell-cell fusion between viral envelope expressing African green monkey COS cells and human TZM-bl cells up to 5 uM after overnight incubation by Bright-Glo luciferase assay; type: cell-based; conditions: Human immunodeficiency virus 1

Compound	CC50 at 72 h [1] [µM]	EC50 [2] [µM]	other results
NCCCCCCN1CCCC2=C[C@H]3C[C@H](CN4CCCC[C@H]34)[C@@H]21	> 60.4	> 10	
O=C(/C=C/c1ccc2c(c1)OCO2)NCCCN1CCCC2=C[C@H]3C[C@H](CN4CCCC[C@H]34)[C@@H]21	> 43.2	7.98	
O=C(NCCCCN1CCCC2=C[C@H]3C[C@H](CN4CCCC[C@H]34)[C@@H]21)c1ccc(F)cc1	> 47.1	> 10	
C1=C2CCCN(CCCCNCc3ccccc3)[C@H]2[C@@H]2C[C@H]1[C@H]1CCCCN1C2	28.6	0.96	
C=C(C)[C@@H]1CC[C@]2(C(=O)NCCCCCCCNC(C)=O)CC[C@]3(C)[C@H](CC[C@@H]4[C@@]5(C)CC[C@H](O)C(C)(C)[C@@H]5CC[C@]43C)[C@@H]12	> 32.8	0.025	inhibition [3]: Active; inhibition [4]: Active
Cc1ccc(C(=O)NCCCCN2CCCC3=C[C@H]4C[C@H](CN5CCCC[C@H]45)[C@@H]32)cc1	> 47.5	4.98	
C1=C2CCCN[C@H]2[C@@H]2C[C@H]1[C@H]1CCCCN1C2	> 86.2	1.75	inhibition [5]: Active; inhibition [6]: inactive; EC50 [7]: 1.2 µM; EC50 [8]: 1.6 µM; inhibition [9]: Active; inhibition [10]: Active
COc1ccnc2[nH]cc(C(=O)C(=O)N3CCN(C(=O)c4ccccc4)C[C@H]3C)c12			EC50 [8]: 0.1 µM; inhibition [11]: inactive; inhibition [12]: inactive
C1CN[C@@H]2C(C1)C[C@H]1C[C@@H]2CN2CCCC[C@H]12 (stereo partly drawn)	> 85.5	> 10	
O=C(/C=C/c1ccc2c(c1)OCO2)NCCCCN1CCCC2=C[C@H]3C[C@H](CN4CCCC[C@H]34)[C@@H]21	> 41.9	3.17	
C1=C2CCCN(CCCCCNCc3ccccc3)[C@H]2[C@@H]2C[C@H]1[C@H]1CCCCN1C2	25.1	0.84	
O=C(/C=C/c1ccc(OC(F)(F)F)cc1)NCCCCN1CCCC2=C[C@H]3C[C@H](CN4CCCC[C@H]34)[C@@H]21	9.02	2.06	
O=C(NCCCCN1CCCC2=C[C@H]3C[C@H](CN4CCCC[C@H]34)[C@@H]21)c1ccc(O)cc1	> 47.3	4.57	
O=C(/C=C/c1ccc(OC(F)(F)F)cc1)NCCCCCN1CCCC2=C[C@H]3C[C@H](CN4CCCC[C@H]34)[C@@H]21	6.36	2.39	
COc1ccc(C(=O)NCCCCN2CCCC3=C[C@H]4C[C@H](CN5CCCC[C@H]45)[C@@H]32)cc1	> 45.8	8.13	
O=C(NCCCCN1CCCC2=C[C@H]3C[C@H](CN4CCCC[C@H]34)[C@@H]21)c1cccc(OC(F)(F)F)c1	> 40.7	3.89	
O=C(NCCCN1CCCC2=C[C@H]3C[C@H](CN4CCCC[C@H]34)[C@@H]21)c1ccc(OC(F)(F)F)cc1	> 41.9	> 10	
O=C(NCCCCN1CCCC2=C[C@H]3C[C@H](CN4CCCC[C@H]34)[C@@H]21)c1ccccc1	> 49.1	> 10	
O=C(NCCCCN1CCCC2=C[C@H]3C[C@H](CN4CCCC[C@H]34)[C@@H]21)c1ccccc1OC(F)(F)F	> 40.7	> 10	

Compound	CC50 at 72 h [1] [µM]	EC50 [2] [µM]	other results
O=C(NCCCCCN1CCCC2=C[C@H]3C[C@H](CN4CCCC[C@H]34)[C@@H]21)c1ccc(OC(F)(F)F)cc1	12.9	0.98	
CN1CCCC2=C[C@H]3C[C@H](CN4CCCC[C@H]34)[C@@H]21	> 81.3	> 10	
O=C(Cc1ccc(OC(F)(F)F)cc1)NCCCCCN1CCCC2=C[C@H]3C[C@H](CN4CCCC[C@H]34)[C@@H]21	17.5	4.21	
CN1CCCC2C[C@H]3C[C@H](CN4CCCC[C@H]34)[C@@H]21 (stereo partly drawn)	> 80.6	> 10	
NCCCCN1CCCC2=C[C@H]3C[C@H](CN4CCCC[C@H]34)[C@@H]21	> 69.2	8	
NCCN1CCCC2=C[C@H]3C[C@H](CN4CCCC[C@H]34)[C@@H]21	> 73	> 10	
NCCCN1CCCC2=C[C@H]3C[C@H](CN4CCCC[C@H]34)[C@@H]21	> 69.4	> 10	
O=C(/C=C/c1ccc2c(c1)OCO2)NCCN1CCCC2=C[C@H]3C[C@H](CN4CCCC[C@H]34)[C@@H]21	> 44.5	> 10	
O=C(NCCCCN1CCCC2=C[C@H]3C[C@H](CN4CCCC[C@H]34)[C@@H]21)c1ccc(OC(F)(F)F)cc1F	> 39.3	3.14	
NCCCCCN1CCCC2=C[C@H]3C[C@H](CN4CCCC[C@H]34)[C@@H]21	> 63.1	5.38	
O=C(NCCCCN1CCCC2=C[C@H]3C[C@H](CN4CCCC[C@H]34)[C@@H]21)c1ccc(OC(F)(F)F)cc1	34.6	1.12	
O=C(Cc1ccc(OC(F)(F)F)cc1)NCCCN1CCCC2=C[C@H]3C[C@H](CN4CCCC[C@H]34)[C@@H]21	> 40.7	7.68	
O=C(NCCCCCCN1CCCC2=C[C@H]3C[C@H](CN4CCCC[C@H]34)[C@@H]21)c1ccc(OC(F)(F)F)cc1	18.5	5.44	
O=C(NCCN1CCCC2=C[C@H]3C[C@H](CN4CCCC[C@H]34)[C@@H]21)c1ccc(OC(F)(F)F)cc1	> 43.2	> 10	
O=C(NCCCCN1CCCC2=C[C@H]3C[C@H](CN4CCCC[C@H]34)[C@@H]21)c1ccc(C(F)(F)F)cc1	> 42.1	0.69	
FC(F)(F)Oc1ccc(CNCCCCN2CCCC3=C[C@H]4C[C@H](CN5CCCC[C@H]45)[C@@H]32)cc1	6.2	4.2	
O=C(NCCCCCN1CCCC2=C[C@H]3C[C@H](CN4CCCC[C@H]34)[C@@H]21)c1ccc(OC(F)(F)F)cc1F	> 38.2	6.21	
O=C(Cc1ccc(OC(F)(F)F)cc1)NCCN1CCCC2=C[C@H]3C[C@H](CN4CCCC[C@H]34)[C@@H]21	> 41.9	> 10	
